Reference: US20190209528A1, “MEDICINAL DRUG, METHOD, USE, AND COMPOUND FOR PREVENTING OR CURING LEUKEMIA ASSOCIATED WITH MLL” (FUJIFILM Corporation, priority 2016, published 2019)

What was measured:
[1] = test system: MLL fusion gene (MLL-AF9) leukemia cells; assay: Mouse acute myelogenous leukemia model with MLL fusion gene (MLL-AF9) introduced (Test Example 1); assay type: in vivo
Experimental: (§1) Hereinafter, Test examples 1 and 2 will be described. Test Example 1 and 2 were carried out with reference to J Clin Invest., 2013 Sep. 3, 123(9): 3876 to 3888; and Blood, 1 Sep. 2011, Volume 118, 2541 to 2550.
A mouse acute myelogenous leukemia (AML) model into which the MLL fusion gene (MLL-AF9) inducing cancer was introduced, was prepared. Specifically, bone marrow cells were collected from a C57BL/6-Ly5.1 mouse (Sankyo Labo Service Corporation, INC., hereinafter the same applies), and hematopoietic stem precursor cells were isolated using CD117 MicroBeads. MLL-AF9 marked with GFP (green fluorescent protein) was introduced into these cells using a virus. This MLL-AF9-introduced cells were transplanted to the same strain (C57BL/6) mouse (Japan SLC, Inc., hereinafter the same applies), and GFP-positive leukemia cells were collected from the mouse spleens that developed leukemia. These cells were subjected to second, third, and fourth transplantations, and after the fourth transplantation, MLL fusion gene (MLL-AF9) leukemia cells causing all the mice to develop leukemia in about 2 weeks were collected.
These MLL fusion gene (MLL-AF9) leukemia cells 1×10^6/mouse were injected into the C57BL/6 mouse from the tail vein. On day 4 after the day of injection, 0.5% methylcellulose suspension of 5-hydroxy-1H-imidazole-4-carboxamide-3/4 hydrate (medicine) was administered orally to the mouse once per day at 160 mg/kg (in terms of free base) on Monday (day 4), Wednesday (day 6), and Friday (day 8), and this administration was continued during the survival period of the mouse.

[2] = test system: p53-deleted MLL fusion gene (MLL-AF9) leukemia cells; assay: Mouse acute myelogenous leukemia model, MLL-AF9 leukemia cells with the p53 gene deleted (Test Example 2); assay type: in vivo
Experimental: as §1
In the case where the survival period was extended depending on the function of a p53 gene, there is a concern that clinical usefulness may be limited. For this reason, the MLL fusion gene (MLL-AF9) leukemia cells were prepared in the same manner as in Test Example 1 by using mice in which the p53 gene was deleted.

[3] = test system: leukemia associated with MLL (MLL-ENL); details: FIG. 3 and FIG. 5 of Genes & development, Vol. 23, pp. 877 to 889, 2009; cited from earlier work

SMILES: NC(=O)c1nc[nH]c1O [5-hydroxy-1H-imidazole-4-carboxamide-3/4 hydrate]
- longest survival in medicine-administered group (FIG. 1) ([1]; 160 mg/kg orally Mon/Wed/Fri from day 4): up to 40 days
- survival period of medicine-administered group (FIG. 1) ([1]; 160 mg/kg orally Mon/Wed/Fri from day 4, control mice all died in about 20 days): ≥ 30 days
- survival period versus non-administered group ([1]; C57BL/6 mouse, 1x10^6 MLL-AF9 leukemia cells via tail vein, 160 mg/kg (free base) orally once per day Mon/Wed/Fri from day 4, log-rank test significant): significant extension of the survival period
- proliferation of GFP+ cells in the peripheral blood (FIG. 2) ([1]; day 10 after injection of leukemia cells, Mann-Whitney's U test significant versus control): proliferation of GFP+ cells was suppressed
- longest survival in medicine-administered group (FIG. 3) [2]: ≥ 40 days
- survival period of medicine-administered group (FIG. 3) ([2]; control mice died in less than 20 days): ≥ 20 days
- proliferation of GFP+ cells in the peripheral blood (FIG. 4) ([2]; day 19 after injection of leukemia cells): proliferation of GFP+ cells was suppressed
- survival period versus non-administered group, p53-deleted leukemia cells ([2]; same manner as Test Example 1): extension of the survival period according to the present invention does not depend on the p53 gene

SMILES: Nc1ccn([C@@H]2O[C@H](CO)[C@@H](O)[C@@H]2O)c(=O)n1 [cytarabine]
- efficacy of existing chemotherapy in leukemia associated with MLL [3]: not effective

SMILES: COc1cccc2c1C(=O)c1c(O)c3c(c(O)c1C2=O)C[C@@](O)(C(=O)CO)C[C@@H]3O[C@H]1C[C@H](N)[C@H](O)[C@H](C)O1 [doxorubicin]
- efficacy of existing chemotherapy in leukemia associated with MLL [3]: not effective
